Assay results: patent publication US8314217B2, “Cross-linked glycopeptide-cephalosporin antibiotics” (priority 2003, dated 2012)
Converted amounts (≈) assume the structure as drawn.

How the values were obtained:
MSSA 13709 = test: Minimal inhibitory concentration (MIC), broth microdilution; format: cell-based, methicillin-susceptible Staphylococcus aureus; details: Staphylococcus aureus, read-out: MIC MSSA 13709
Protocol: (§1) Minimal inhibitory concentration (MICs) assays were performed using the broth microdilution method set forth in NCCLS guidelines (see, NCCLS. 2000. Methods for Dilution Antimicrobial Susceptibility Tests for Bacteria That Grow Aerobically; Approved Standard—Fifth Ed., Vol. 20, No. 2). Bacterial strains were obtained from the American Type Tissue Culture Collection (ATCC), Stanford University Hospital (SU), Kaiser Permanente Regional Laboratory in Berkeley (KPB), Massachusetts General Hospital (MGH), the Centers for Disease Control (CDC), the San Francisco Veterans' Administration Hospital (SFVA) or the University of California San Francisco Hospital (UCSF). Vancomycin-resistant enterococci were phenotyped as Van A or Van B based on their sensitivity to teicoplanin. Some vancomycin-resistant enterococci that had been genotyped as Van A, Van B, Van C1 or Van C2 were also obtained from the Mayo Clinic.
(§2) In this assay, cryopreserved bacterial cultures of reference and clinical strains were streaked for isolation on appropriate agar medium (i.e., Trypticase Soy Agar, Trypticase Soy Agar with defibrinated sheep erythrocytes, Brain Heart Infusion Agar, Chocolate Agar). Following incubation to allow formation of colonies, these plates were sealed with Parafilm® and stored refrigerated for up to two weeks. […] The MIC was read visually as the lowest concentration well with no bacterial growth. […]

MRSA 33591 [1] = test: Time-kill assay; format: cell-based, methicillin-resistant Staphylococcus aureus; details: MRSA 33591, in 24 hours
Protocol: This time-kill assay is a method for measuring the rate of bactericidal activity of a test compound. […] A rapid time-kill is desirable to quickly prevent bacterial colonization and reduce host tissue damage.
Bacteria were diluted in prewarmed media in shake flasks and incubated with shaking (200 rpm, 35° C.). At 0, 1, 4, and 24 hours samples were withdrawn from the flasks and bacteria were enumerated by plate counting. Subsequent to the initial sampling, a compound to be assayed was added to the shake flask culture. Plate counts at these intervals previous to and following addition of the compound were expressed graphically in a time-kill curve.

[2] = tested on: methicillin-susceptible Staphylococcus aureus (MSSA 13709) and methicillin-resistant Staphylococcus aureus (MRSA 33591); test: In vivo efficacy in neutropenic mice (thigh infection); parameters: species or system Male CD-1 mice; details: iv, 24 h, read-out: ED50 (dose required to produce 50% of the maximum reduction in thigh titre)
Protocol: Animals (Male CD-1 mice, 20-30 g) were acquired from Charles Rivers Laboratories (Gilroy, Calif.) and allowed access to food and water ad libitum. Neutropenia was induced via 200 mg/kg intraperitoneal (IP) injection of cyclophosphamide given four and two days prior to the inoculation of bacteria.
The organism used was either a susceptible or resistant strain of clinically relevant Gram-positive pathogens, such as methicillin-susceptible Staphylococcus aureus (MSSA 13709) and methicillin-resistant Staphylococcus aureus (MRSA 33591). The bacterial inoculum concentration was ˜10^6 CFU/mL. Animals were lightly anesthetized with isoflurane and […] of the bacterial inoculum was injected into the anterior thigh. One hour after the inoculation, animals were dosed intravenously with vehicle or the appropriate dose of the test compound. At 0 hours and 24 hours post-treatment, the animals were euthanized (CO2 asphyxiation) and the anterior and posterior thigh collected aseptically. The thigh was placed into 10 mL sterile saline and homogenized. Dilutions of the homogenate were plated onto triptic soy agar plates which were incubated overnight. The number of bacterial colonies on a given plate was multiplied by the dilution factor, divided by the thigh weight (in grams) and expressed as log CFU/g. […]

MRSA 33591 [3] = test: Minimal inhibitory concentration (MIC), broth microdilution; format: cell-based, methicillin-resistant Staphylococcus aureus; details: Staphylococcus aureus, read-out: MIC MRSA 33591
Protocol: as §1, §2

SMILES: CN[C@H](CC(C)C)C(=O)N[C@H]1C(=O)N[C@@H](CC(N)=O)C(=O)N[C@H]2C(=O)N[C@H]3C(=O)N[C@H](C(=O)N[C@H](C(=O)O)c4cc(O)cc(O)c4-c4cc3ccc4O)[C@H](O)c3ccc(c(Cl)c3)Oc3cc2cc(c3O[C@@H]2O[C@H](CO)[C@@H](O)[C@H](O)[C@H]2O[C@H]2C[C@](C)(N)[C@H](O)[C@H](C)O2)Oc2ccc(cc2Cl)[C@H]1O [Vancomycin]
- MIC (MSSA 13709): 1 mg/L (≈ 0.69 µM)
- bactericidal concentration (≧3 log decrease in bacterial cell numbers) (MRSA 33591 [1]): 4 μg/mL
- ED50 [2]: 9 mg/kg
- MIC (MRSA 33591 [3]): 2 mg/L (≈ 1.38 µM)
